In patent US9234002B2, “Small peptide specific for lung cancer and application thereof” (Guangzhou Peptide Medical Technology Co., Ltd., priority 2012, dated 2016):

Key:
[1] = Toxicity of radiotherapeutic agent in mice bearing lung cancer cells (hematology, serum biochemistry, histopathology); type: in vivo
Method: After treatment with radiotherapeutic agent for three weeks, the mice were sacrificed and the major tissues or organs such as blood, liver, kidneys, heart, lungs and spleen were removed completely. A routine blood test was performed using an automatic hematology analyzer to measure the following parameters: white blood cell (WBC), red blood cell (RBC) and platelet (PLT) count. Clinical biochemicals parameters measured with an automated biochemical analyzer were aspartate transferase (AST), alanine transferase (ALT), blood urea nitrogen (BUN) and creatinine (CRE). Histopathological and ultrastructural observations were performed on the preserved organs and tissues stated above.

[2] = test system: NCI-H1975 (adenocarcinoma) and L78 (squamous carcinoma); test: Median survival of lung cancer bearing nude mice after treatment; type: in vivo, human; details: tumor bearing nude mice, tail vein injection
Method: Two human lung cancer cell lines comprising NCI-H1975 (adenocarcinoma) and L78 (squamous carcinoma) were maintained in RPMI 1640 (GIBCO, Mississauga, Canada) supplemented with 10% heat-inactivated calf serum (HyClone, Logan, Utah) and L-glutamine (Beyotime, Jiangsu, China) in an incubator at 37° C. with 5% CO2. Cells were harvested with trypsin/EDTA, washed with PAS twice and re-suspended in free serum culture medium at a concentration of 5×10^6 cells/mL. The suspended cells (0.2 mL) were inoculated s.c. into the back of nude mice to establish the lung cancer models, respectively. There are twelve nude mice in each group of cancer model. Tumor growth and general states such as mental, diet and weight were monitored periodically. When tumors reached approximately 1 cm in mean diameter, the tumor bearing mice were used in therapeutic efficacy studies.
The tumor size was measured two dimensionally on days 3, 6, 9, 12, 15, 18, 21, 24, 27 and 30 after injection, while mice weight was also determined. The tumor volume was calculated by the formula volume V=(4/3)×π×R1×R2, where R1 is radius 1 and R2 is radius 2 and R1<R2. Growth curves of the tumors were constructed according to these tumor volumes.

[3] = mice bearing lung cancer (24 h)

Structure (SMILES): [131I-].[Na+] [^131I, iodine-131]
- ALT [1, 3]: 60.7 ± 7.8 U/L
- AST [1, 3]: 171.7 ± 0.8 U/L
- BUN [1, 3]: 9.4 ± 1.3 mmol/L
- CRE [1, 3]: 42.7 ± 3.8 µmol/L
- PLT [1, 3]: 991.2 ± 52.5 G/L
- RBC [1, 3]: 7.8 ± 0.2 T/L
- WBC [1, 3]: 13.6 ± 0.7 G/L
- leukocyte count versus control ([1]; mice bearing lung cancer cells): decrease
- median survival time [2]: 42 days
